# Laboratory results taken from article PMC10574185, “Encapsulation and Biological Activity of Hesperetin Derivatives with HP-β-CD” (Molecules, 2023).
# Where two headings read alike, the source gives them in different places.
# Experiments:
# [1] = Phase solubility studies with HP-β-CD; type: physicochemical; settings: for solubility at 60 min: thermodynamic from solid
# Procedure: The purpose of this part of the study was to determine the solubility of compounds of hesperetin and its Schiff bases (HHSB, HIN, and HTSC) in aqueous solution at different pHs and temperatures, and the effect of their inclusion in modified HP-β-CD on the aqueous solubility of these compounds at different pH values.
# The effect of the presence of HP-β-CD at different temperatures (25, 37, and 60 °C) was determined by developing phase solubility diagrams.
# In accordance with the methodology described in Section 3.4, excess amounts of each tested substance were added to aqueous solution with increasing concentration of HP-β-CD up to 16 mM, respectively, in 2 mL of 100 mM sodium acetate buffer (pH 3.6), 100 mM sodium phosphate buffer (pH 6.5) or 100 mM sodium borate buffer (pH 8.5).
# Phase solubility studies were conducted according to [64] with some modifications. Excess amounts of each tested substance were added to aqueous solution with increasing concentration of HP-β-CD up to 16 mM, in 2 mL of 100 mM sodium acetate buffer (pH 3.6), 100 mM sodium phosphate buffer (pH 6.5), or 100 mM sodium borate buffer (pH 8.5), respectively. The samples were maintained in an ultrasonic bath at various temperatures (25, 37, and 60 °C) for 60 min to reach equilibrium. The aqueous solutions were then filtered through 0.45 µm acetate cellulose (CA) membrane filter and diluted. The tested compound concentration on each clear filtrate was spectrophotometrically determined by measuring at their wavelength maximum.
# The complexation constant (Kc) between studied molecules and HP-β-CD was determined by using Equation (1):(1) Kc=slope/S0 (1−slope) where S0 means the water solubility of the studied substance, and “slope” means the slope of the phase solubility diagram.
# Complexation efficiency was calculated from the slope of the phase solubility diagram using Equation (2):(2) CE=S0×Kc=slope/1−slope
# The CE was also applied to evaluate the molar ratio in solution of tested systems using Equation (3):(3) Compound:HP−β−CD=1:(1+1/CE)
# [2] = ABTS^•+ radical cation decolorization assay; settings: concentration 0.1 mg/mL, mean ± SD
# Procedure: (§1) To evaluate the antioxidant ability of the tested systems, antioxidant analysis was performed. Antioxidants can scavenge hydroxyl radicals in two ways: by reacting directly with hydroxyl radicals (DPPH^•, ABTS^•+) or indirectly inhibiting the formation of hydroxyl radicals by chelating metal ions involved in the production of hydroxyl radicals. The antioxidant activity of the systems studied was investigated by using DPPH^• scavenging, ABTS^•+ scavenging ability, and Fe^2+-chelating ability. In this study, the antioxidant activity of pure hesperetin and its Schiff bases (HHSB, HIN, and HTSC) and HP-β-CD complexes were compared, and the positive control was Trolox.
# Antioxidant activity using ABTS^•+ cation radical scavenging was determined according to a modified method. ABTS solution (2.5 mM) was mixed with 1.0 mM potassium persulfate solution and left at room temperature in the dark for 12-24 h. After this time, the absorbance of the finished ABTS^•+ solution was corrected with ethanol to 0.70 ± 0.02 at 745 nm. A total of 100 µL of the sample was reacted for 5 min with 2 mL of ABTS^•+ solution (A745 nm = 0.70 ± 0.02). The absorbance value of the reaction mixture was measured at 745 nm. […] Scavenging activity (%) = [1 − (Asample − Ablank)/Acontrol] × 100%(4) where Acontrol is the absorbance value of the control (ABTS^•+ solution with water), Ablank is the absorbance value of samples mixed with anhydrous ethanol, and Asample is the absorbance value of the added test sample to ABTS^•+ solution at 745 nm, respectively.
# [3] = FRAP assay (ferric-ion reducing antioxidant power); settings: mean ± SD
# Procedure: as §1
# The antioxidant capacity determined by the FRAP assay (the ability of plasma to reduce iron) was carried out using a modification of the FRAP assay. The FRAP reagent consisted of the following solutions: 300 mM acetate, pH 3.6 glacial acetic acid buffer, 20 mM ferric chloride (FeCl3×6H2O), and 10 mM 2,4,6-tripyridyl-S-triazine (TPTZ) prepared in 40 mM HCl. The aforementioned solutions were mixed together in a ratio of 10:1:1 (v/v/v). The FRAP assay consisted of adding 15 µL of sample to 1.98 mL of reagent and incubating the mixture at 37 °C for 4 min. Absorbance measurement was recorded at 593 nm against a blank. Total antioxidant capacity was estimated relative to a standard of known FRAP concentration, ferrous sulfate.
# HaCaT cells = assay: MTT cytotoxicity assay on HaCaT keratinocytes; type: cell-based, human; settings: for IC50: Homo sapiens, MTT
# How it was run: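 HaCaT immortalised human keratinocytes exposed for 24 and 48 h to compounds in DMSO at nine final concentrations, 3.9–995.6 µg/mL, four replicates each. Viability read by MTT; three independent experiments, medium-only cells as vehicle.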
# [4] = 25 °C, pH 6.5, HP-β-CD at 16 mM
# [5] = aqueous buffer, 25 °C, pH 3.6 sodium acetate buffer, without cyclodextrin, read-out: solubility without HP-β-CD (value in brackets) (converted)
# [6] = aqueous buffer, 25 °C, pH 6.5 sodium phosphate buffer, without cyclodextrin, read-out: solubility without HP-β-CD (value in brackets) (converted)
# [7] = aqueous buffer, 25 °C, pH 8.5 sodium borate buffer, without cyclodextrin, read-out: solubility without HP-β-CD (value in brackets) (converted)
# [8] = aqueous buffer, 37 °C, pH 3.6 sodium acetate buffer, without cyclodextrin, read-out: solubility without HP-β-CD (value in brackets) (converted)
# [9] = aqueous buffer, 37 °C, pH 6.5 sodium phosphate buffer, without cyclodextrin, read-out: solubility without HP-β-CD (value in brackets) (converted)
# [10] = aqueous buffer, 37 °C, pH 8.5 sodium borate buffer, without cyclodextrin, read-out: solubility without HP-β-CD (value in brackets) (converted)
# [11] = aqueous buffer, 60 °C, pH 3.6 sodium acetate buffer, without cyclodextrin, read-out: solubility without HP-β-CD (value in brackets) (converted)
# [12] = aqueous buffer, 60 °C, pH 6.5 sodium phosphate buffer, without cyclodextrin, read-out: solubility without HP-β-CD (value in brackets) (converted)
# [13] = aqueous buffer, 60 °C, pH 8.5 sodium borate buffer, without cyclodextrin, read-out: solubility without HP-β-CD (value in brackets) (converted)
# [14] = 25 °C, pH 3.6 sodium acetate buffer, with HP-β-CD, read-out: S0 (solubility with HP-β-CD)
# [15] = 25 °C, pH 6.5 sodium phosphate buffer, with HP-β-CD, read-out: S0 (solubility with HP-β-CD)
# [16] = 25 °C, pH 8.5 sodium borate buffer, with HP-β-CD, read-out: S0 (solubility with HP-β-CD)
# [17] = 37 °C, pH 3.6 sodium acetate buffer, with HP-β-CD, read-out: S0 (solubility with HP-β-CD)
# [18] = 37 °C, pH 6.5 sodium phosphate buffer, with HP-β-CD, read-out: S0 (solubility with HP-β-CD)
# [19] = 37 °C, pH 8.5 sodium borate buffer, with HP-β-CD, read-out: S0 (solubility with HP-β-CD)
# [20] = 60 °C, pH 3.6 sodium acetate buffer, with HP-β-CD, read-out: S0 (solubility with HP-β-CD)
# [21] = 60 °C, pH 6.5 sodium phosphate buffer, with HP-β-CD, read-out: S0 (solubility with HP-β-CD)
# [22] = 60 °C, pH 8.5 sodium borate buffer, with HP-β-CD, read-out: S0 (solubility with HP-β-CD)
# [23] = 48 h exposure, read-out: IC50 After 48 h
smiles,measurement,setting,value
"COc1ccc(C2CC(=NNC(N)=S)c3c(O)cc(O)cc3O2)cc1O (stereo not drawn) [HTSC, N-[2,3-dihydro-5,7-dihydroxy-2-(3-hydroxy-4-methoxyphenyl)chromen-4-ylidene]thiosemicarbazide]",CE complexation efficiency,"[1]; 25 °C, pH 3.6, with HP-β-CD",0.07%
same,Kc complexation constant,"[1]; 25 °C, pH 3.6, with HP-β-CD",13 ± 2.9 M⁻¹
same,increase of solubility with HP-β-CD,[1]; [4],five-fold
same,CE complexation efficiency,"[1]; 25 °C, pH 6.5, with HP-β-CD",0.07%
same,Kc complexation constant,"[1]; 25 °C, pH 6.5, with HP-β-CD",11 ± 1.6 M⁻¹
same,CE complexation efficiency,"[1]; 25 °C, pH 8.5, with HP-β-CD",0.1%
same,Kc complexation constant,"[1]; 25 °C, pH 8.5, with HP-β-CD",12.5 ± 0.3 M⁻¹
same,CE complexation efficiency,"[1]; 37 °C, pH 3.6, with HP-β-CD",0.1%
same,Kc complexation constant,"[1]; 37 °C, pH 3.6, with HP-β-CD",16 ± 1.7 M⁻¹
same,CE complexation efficiency,"[1]; 37 °C, pH 6.5, with HP-β-CD",0.1%
same,Kc complexation constant,"[1]; 37 °C, pH 6.5, with HP-β-CD",16 ± 1.7 M⁻¹
same,CE complexation efficiency,"[1]; 37 °C, pH 8.5, with HP-β-CD",0.3%
same,Kc complexation constant,"[1]; 37 °C, pH 8.5, with HP-β-CD",18 ± 4.2 M⁻¹
same,increase of solubility with HP-β-CD,"[1]; 60 °C, pH 3.6",five-fold
same,CE complexation efficiency,"[1]; 60 °C, pH 3.6, with HP-β-CD",0.5%
same,Kc complexation constant,"[1]; 60 °C, pH 3.6, with HP-β-CD",28 ± 0.3 M⁻¹
same,CE complexation efficiency,"[1]; 60 °C, pH 6.5, with HP-β-CD",0.04%
same,Kc complexation constant,"[1]; 60 °C, pH 6.5, with HP-β-CD",2.2 ± 0.6 M⁻¹
same,CE complexation efficiency,"[1]; 60 °C, pH 8.5, with HP-β-CD",0.1%
same,Kc complexation constant,"[1]; 60 °C, pH 8.5, with HP-β-CD",3.2 ± 0.6 M⁻¹
same,solubility at 60 min,[1]; [5],17 µM
same,solubility at 60 min,[1]; [6],11 µM
same,solubility at 60 min,[1]; [7],20 µM
same,solubility at 60 min,[1]; [8],28 µM
same,solubility at 60 min,[1]; [9],27 µM
same,solubility at 60 min,[1]; [10],220 µM
same,solubility at 60 min,[1]; [11],37 µM
same,solubility at 60 min,[1]; [12],160 µM
same,solubility at 60 min,[1]; [13],250 µM
same,solubility at 60 min,[1]; [14],54 ± 30 µM
same,solubility at 60 min,[1]; [15],61 ± 20 µM
same,solubility at 60 min,[1]; [16],70 ± 30 µM
same,solubility at 60 min,[1]; [17],76 ± 35 µM
same,solubility at 60 min,[1]; [18],68 ± 33 µM
same,solubility at 60 min,[1]; [19],160 ± 54 µM
same,solubility at 60 min,[1]; [20],170 ± 65 µM
same,solubility at 60 min,[1]; [21],180 ± 60 µM
same,solubility at 60 min,[1]; [22],270 ± 89 µM
same,ABTS^•+ antioxidant activity,[2],86.61 ± 4.6%
same,FRAP antioxidant activity,[3],0.000005 ± 0.00005 mmolFe(II)/L
same,Non-cytotoxic concentration (IC0),HaCaT cells; 48 h exposure,≤ 3.9 µg/mL
same,IC50,HaCaT cells; [23],11.9 µg/mL
"COc1ccc(C2CC(=O)c3c(O)cc(O)cc3O2)cc1O (stereo not drawn) [Hesperetin, 3′,5,7-Trihydroxy-4′-methoxyflavanone]",CE complexation efficiency,"[1]; 25 °C, pH 3.6, with HP-β-CD",34.7%
same,Kc complexation constant,"[1]; 25 °C, pH 3.6, with HP-β-CD",3221 ± 358 M⁻¹
same,increase of solubility with HP-β-CD,[1]; [4],five-fold
same,CE complexation efficiency,"[1]; 25 °C, pH 6.5, with HP-β-CD",248%
same,Kc complexation constant,"[1]; 25 °C, pH 6.5, with HP-β-CD",11933 ± 1949 M⁻¹
same,CE complexation efficiency,"[1]; 25 °C, pH 8.5, with HP-β-CD",80.4%
same,Kc complexation constant,"[1]; 25 °C, pH 8.5, with HP-β-CD",2513 ± 143 M⁻¹
same,CE complexation efficiency,"[1]; 37 °C, pH 3.6, with HP-β-CD",44.4%
same,Kc complexation constant,"[1]; 37 °C, pH 3.6, with HP-β-CD",3171 ± 887 M⁻¹
same,CE complexation efficiency,"[1]; 37 °C, pH 6.5, with HP-β-CD",25%
same,Kc complexation constant,"[1]; 37 °C, pH 6.5, with HP-β-CD",2280 ± 152 M⁻¹
same,CE complexation efficiency,"[1]; 37 °C, pH 8.5, with HP-β-CD",19%
same,Kc complexation constant,"[1]; 37 °C, pH 8.5, with HP-β-CD",1703 ± 163 M⁻¹
same,CE complexation efficiency,"[1]; 60 °C, pH 3.6, with HP-β-CD",34%
same,Kc complexation constant,"[1]; 60 °C, pH 3.6, with HP-β-CD",2566 ± 144 M⁻¹
same,CE complexation efficiency,"[1]; 60 °C, pH 6.5, with HP-β-CD",11%
same,Kc complexation constant,"[1]; 60 °C, pH 6.5, with HP-β-CD",1179 ± 888 M⁻¹
same,CE complexation efficiency,"[1]; 60 °C, pH 8.5, with HP-β-CD",37%
same,Kc complexation constant,"[1]; 60 °C, pH 8.5, with HP-β-CD",2365 ± 221 M⁻¹
same,solubility at 60 min,[1]; [5],50 µM
same,solubility at 60 min,[1]; [6],49 µM
same,solubility at 60 min,[1]; [7],280 µM
same,solubility at 60 min,[1]; [8],80 µM
same,solubility at 60 min,[1]; [9],85 µM
same,solubility at 60 min,[1]; [10],98 µM
same,solubility at 60 min,[1]; [11],95 µM
same,solubility at 60 min,[1]; [12],82 µM
same,solubility at 60 min,[1]; [13],120 µM
same,solubility at 60 min,[1]; [14],108 ± 4 µM
same,solubility at 60 min,[1]; [15],208 ± 110 µM
same,solubility at 60 min,[1]; [16],320 ± 32 µM
same,solubility at 60 min,[1]; [17],140 ± 40 µM
same,solubility at 60 min,[1]; [18],110 ± 30 µM
same,solubility at 60 min,[1]; [19],110 ± 10 µM
same,solubility at 60 min,[1]; [20],130 ± 20 µM
same,solubility at 60 min,[1]; [21],96 ± 9 µM
same,solubility at 60 min,[1]; [22],150 ± 27 µM
same,ABTS^•+ antioxidant activity,[2],77.42 ± 2.2%
same,FRAP antioxidant activity,[3],0.0005 ± 0.0005 mmolFe(II)/L
same,Non-cytotoxic concentration (IC0),HaCaT cells; 48 h exposure,≤ 3.9 µg/mL
same,IC50,"HaCaT cells; 24 h exposure, read-out: IC50 After 24 h",221 µg/mL
same,IC50,HaCaT cells; [23],150 µg/mL
